Measured values published in patent US7399462B2, “Protectant for UV-induced skin damage” (QLT USA, Inc., priority 2002, dated 2008).

Tests used:
[1] = tested on: UV-induced skin tumor formation
UV-induced tumors = conditions: topical; UV induced mouse carcinogenicity model; cited from earlier work

Compound	Effect on Unbiased Median Weeks to Tumor (in words) ([1]; 600 RBU/week)	Tumor Potency Ratio (≧1 mm Tumor Size), Sexes Combined ([1]; UVR 600 RBU/week, sexes combined, calculated from Unbiased Median Week to Tumor and untreated 600/1200 RBU calibration)	Formation of skin tumors compared to untreated or vehicle controls (UV-induced tumors)
Nc1ccc(S(=O)(=O)c2ccc(N)cc2)cc1 [Dapsone, bis(4-aminophenyl)sulfone]	increased the Unbiased Median Weeks to Tumor in a dose-dependent manner	reduced with dapsone application in a dose-dependent manner	
O=C(OOC(=O)c1ccccc1)c1ccccc1 [Benzoyl peroxide]			promote the formation of skin tumors
CC1=C(/C=C/C(C)=C/C=C/C(C)=C/C(=O)O)C(C)(C)CCC1 [tretinoin]			promote the formation of skin tumors
